The values below come from article PMC10107299, “Neutralizing the Impact of the Virulence Factor LecA from Pseudomonas aeruginosa on Human Cells with New Glycomimetic Inhibitors” (Angewandte Chemie (International Ed. in English), 2023).

A short description of data set [1]: Plasma protein binding (rapid equilibrium device), murine plasma. In kind it is in vitro ADME, mouse. Conditions: CD-1, mouse, plasma, read-out: PPB Mouse (converted). How it is done:
(§1) mixer (Eppendorf). Acetonitrile and caffeine were dispensed using a Mantis Formulatrix. Then samples were centrifuged for 20 min at 2.270 x g at 4 °C and the supernatants were transferred to 96-well Greiner V-bottom plates. Peak areas of each compound and of the internal standard were analyzed using the MultiQuant 3.0 software (AB Sciex). Peak areas of the respective compound were normalized to the internal standard peak area and to the respective peak areas at time point 0 min: (C/D)/(A/B) with A: peak area of the compound at time point 0 min, B: peak area of the internal standard at time point 0 min, C: peak area of the compound at the respective time point, D: peak area of the internal standard at the respective time point. […]
Assessment of plasma protein binding
Plasma protein binding was assessed using the rapid equilibrium device (RED) system from ThermoFisher. Compounds were dissolved in DMSO. […]
high plasma protein binding. Compounds were diluted in murine plasma (from CD-1 mice, pooled) or in human plasma (human donors, both genders, pooled) to a final concentration of 1 µM. Dialysis buffer and plasma samples were added to the respective chambers according the manufacturer’s protocol. The RED plate was sealed with a tape and incubated at 37 °C for 2 hours at 800 rpm on an Eppendorf MixMate vortex-mixer. Then samples were withdrawn from the respective chambers. To 25 µL of each dialysis sample, 25 µL of plasma and to 25 µL of plasma sample, 25 µL of dialysis buffer was added. Then 150 µL ice-cold extraction solvent (ACN/H2O (90:10) containing 12.5 ng/mL caffeine as internal standard) was added. Samples were incubated for 30 min on ice. Then samples were centrifuged at 4 °C at 2270 x g for 10 min.
Supernatants were transferred to Greiner V-bottom 96-well plates and sealed with a tape. The […]
percentage of bound compound was calculated as follows:
(1) % free = (concentration buffer chamber / concentration plasma chamber) *100 […]
Samples were analyzed using an Agilent 1290 Infinity II HPLC system coupled to an AB Sciex QTrap 6500plus mass spectrometer. LC conditions were as follows: column: Agilent […]
Zorbax Eclipse Plus C18, 50x2.1 mm, 1.8 µm; temperature: 30 °C; injection volume: 5 µL per […]
sample; flow rate: 700 µL/min. Samples were run under acidic and buffered conditions.
Solvents for acidic conditions: A1: water + 0.1% formic acid; solvent B1: 95% acetonitrile/5% […]
H2O + 0.1% formic acid; solvents for buffered conditions: A2: 95% water + 5% acetonitrile + […]
5 mM ammonium acetate + 40 µL/L acetic acid; B2: 95% acetonitrile + 5% water + 5 mM […]
ammonium acetate + 40 µL/L acetic acid. The same gradient was applied for acidic and […]
buffered conditions: 99% A at 0 min, 99% A until 1 min, 99% - 0% A from 1 min to 4.0 min, […]
0% A until 5.0 min. Mass transitions for controls and compounds are depicted in the following […]

Another data set can be described thus: in vitro. The data set is classed as in vitro ADME. Conditions: pH 7.4, 37 °C. On the procedure:
Then, we analyzed the stability of the compounds in plasma. […] The observed increase in plasma stability of the tested amide derivatives compared to bisacylhydrazone 14 supports our design hypothesis for the isosteric replacement of the bisacylhydrazone linking motif. […]
Each compound dissolved in DMSO was added to mouse plasma (pH 7.4, 37 °C) or to human plasma (pH 7.4, 37 °C) to yield a final concentration of 1 µM. In addition, procaine and procainamide (dissolved in DMSO) were added to mouse plasma or to human plasma (pH 7.4, 37 °C) to yield a final concentration of 1 µM. Procaine served as positive control as it is unstable in mouse plasma. Procainamide served as negative control as it is stable in mouse plasma. The samples were incubated for 0 min, 15 min, 30 min, 60 min, 90 min, 120 min and 240 min at 37 °C. At each time point, 10 µl of the respective sample was extracted with 90 µL acetonitrile containing 12.5 ng/mL caffeine as internal standard for 5 min at 2000 rpm on a MixMate vortex […]
as §1
2 hours at 800 rpm on an Eppendorf MixMate vortex-mixer. Then samples were withdrawn from the respective chambers. To 25 µL of each dialysis sample, 25 µL of plasma and to 25 µL of plasma sample, 25 µL of dialysis buffer was added. Then 150 µL ice-cold extraction solvent (ACN/H2O (90:10) containing 12.5 ng/mL caffeine as internal standard) was added. Samples were incubated for 30 min on ice. Then samples were centrifuged at 4 °C at 2270 x g for 10 min.

For a further data set, the target named is T1, LecA (Pseudomonas aeruginosa, UniProt Q05097).
T1 construct: made in house
The data set can be described thus: LecA binding and cellular uptake by fluorescence confocal microscopy. The data set is classed as cell-based. Conditions: for Concentration for complete inhibition of LecA binding and cellular uptake: 0.5 μM LecA-AF488, H1299 cells, confocal microscopy; for LecA binding to H1299 cells (fluorescence signal): 10 μM inhibitor. How it is done:
The ability of H2 and L2 to diminish LecA binding to host receptors at the plasma membrane and its subsequent internalization into H1299 cells was further analyzed by confocal fluorescence microscopy. Here, the applied LecA concentration was increased to improve signal to noise and consequently image quality and inhibitors were preincubated with 0.5 μM LecA before addition to the cells. […] Confocal microscopy images thus confirmed that the divalent inhibitors can prevent LecA binding to the cell surface and reduce lectin uptake in a concentration‐dependent manner. […]
LecA binding and cellular uptake by fluorescence confocal microscopy
Between 5 and 7 × 10^4 cells were seeded on a 12 mm glass coverslip to which they adhered overnight, at 37 °C and 5% CO2. The next day, the cells were incubated with 0.5 µM LecA-AF488 for 30 min at 4 °C and protected from light. Where indicated, LecA was firstly preincubated with PNPG, G2, K2, H2 or L2 in RPMI medium, for 30 min at room temperature and protected from light and then added to the cells for further incubation (30 min, 4 °C).
Subsequently, cells were washed with PBS (-/-) to remove the unbound lectin and inhibitors and the samples were incubated for 1 h at 37 °C. After the lectin stimulation, cells were washed twice with ice-cold PBS (-/-), fixed with 4% paraformaldehyde solution for 15 min and quenched with 50 mM ammonium chloride for 10 min. The membrane was permeabilized and cells were blocked by 0.2% Saponin in 3% BSA in PBS (w/v) for 30 min. The cell nuclei were counterstained with DAPI (5 × 10-9 g/L), and the samples were mounted on coverslips using Mowiol 4-88 (containing the anti-bleaching reagent DABCO). Samples were visualized with laser scanning confocal microscope system from Nikon (Eclipse Ti-E, A1R), equipped with a 60x oil immersion objective and a numerical aperture (NA) of 1.49. The images were analyzed

[2] abbreviates: human plasma, read-out: Plasma stability t1/2 Human.
Where [3] appears, read: mouse plasma, read-out: Plasma stability t1/2 Mouse.

Where two headings read alike, the source gives them in different places. Where only a bound is given, the exact number is not on record here.

T1 sequence (Q05097 whole entry): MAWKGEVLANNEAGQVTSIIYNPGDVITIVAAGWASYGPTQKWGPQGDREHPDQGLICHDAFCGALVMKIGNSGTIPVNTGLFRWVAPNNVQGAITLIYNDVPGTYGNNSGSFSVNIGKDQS

On to `O=C(/C=C/c1ccc(O[C@@H]2O[C@H](CO)[C@H](O)[C@H](O)[C@H]2O)cc1)Nc1ccc(OCCOc2ccc(NC(=O)/C=C/c3ccc(O[C@@H]4O[C@H](CO)[C@H](O)[C@H](O)[C@H]4O)cc3)cc2)cc1` [Compound D1], for which the fraction unbound at 2 h, 1 µM in data set [1] is 0.006. The half-life at 1 µM in “in vitro” (setting [2]) came to 3.73 h; in “in vitro” (setting [3]) it was 3 h.

As to `O=C(CCc1ccc(O[C@@H]2O[C@H](CO)[C@H](O)[C@H](O)[C@H]2O)cc1)Nc1ccc(OCCOc2ccc(NC(=O)CCc3ccc(O[C@@H]4O[C@H](CO)[C@H](O)[C@H](O)[C@H]4O)cc3)cc2)cc1` [Compound D2], the half-life at 1 µM in the data set “in vitro” (setting [2]) is 2.21 h; in the data set “in vitro” (setting [3]), 3.04 h.

With `COc1ccc(NC(=O)CCc2ccc(O[C@@H]3O[C@H](CO)[C@H](O)[C@H](O)[C@H]3O)cc2)cn1` [Compound G2], the “Concentration for complete inhibition of LecA binding and cellular uptake” value at LecA is 75 µM.

Regarding `O=C(/C=C/c1ccc(O[C@@H]2O[C@H](CO)[C@H](O)[C@H](O)[C@H]2O)cc1)Nc1ccc(OCCOc2ccc(NC(=O)/C=C/c3ccc(O[C@@H]4O[C@H](CO)[C@H](O)[C@H](O)[C@H]4O)cc3)cn2)nc1` [Compound H1], the half-life at 1 µM was greater than 4 h in “in vitro” (setting [2]) and greater than 3 h in the data set “in vitro” (setting [3]).

As for `O=C(CCc1ccc(O[C@@H]2O[C@H](CO)[C@H](O)[C@H](O)[C@H]2O)cc1)Nc1ccc(OCCOc2ccc(NC(=O)CCc3ccc(O[C@@H]4O[C@H](CO)[C@H](O)[C@H](O)[C@H]4O)cc3)cn2)nc1` [Compound H2], on LecA, the “LecA binding to H1299 cells (fluorescence signal)” value was “remarkably decreased”. Also, the fraction unbound at 2 h, 1 µM in data set [1] was 0.03. The half-life at 1 µM was determined as 3.58 h in the data set “in vitro” (setting [2]) and 1.35 h in “in vitro” (setting [3]).

For `Cc1ccc(NC(=O)CCc2ccc(O[C@@H]3O[C@H](CO)[C@H](O)[C@H](O)[C@H]3O)cc2)cc1S(=O)(=O)O` [Compound K2], the “Concentration for complete inhibition of LecA binding and cellular uptake” value at LecA was 75 µM.

Regarding `O=C(CCc1ccc(O[C@@H]2O[C@H](CO)[C@H](O)[C@H](O)[C@H]2O)cc1)Nc1ccc(CCc2ccc(NC(=O)CCc3ccc(O[C@@H]4O[C@H](CO)[C@H](O)[C@H](O)[C@H]4O)cc3)cc2S(=O)(=O)O)c(S(=O)(=O)O)c1` [Compound L2], the “LecA binding to H1299 cells (fluorescence signal)” value at LecA is reported as “remarkably decreased”. The fraction unbound at 2 h, 1 µM in data set [1] is 0.86. Further, the half-life at 1 µM in “in vitro” (setting [2]) and in the data set “in vitro” (setting [3]) was greater than 4 h in each case.
